Values quoted from earlier work, collected in patent US9877959B2, “Pharmaceutical composition containing palonosetron” (SAMYANG BIOPHARMACEUTICALS CORPORATION, priority 2013, dated 2018).

How the values were obtained:
[1] = target: T1, 5-HT3 receptor (Homo sapiens, UniProt P46098); details: relative to first-generation 5-HT3 receptor antagonists
T1 sequence (P46098 24-478): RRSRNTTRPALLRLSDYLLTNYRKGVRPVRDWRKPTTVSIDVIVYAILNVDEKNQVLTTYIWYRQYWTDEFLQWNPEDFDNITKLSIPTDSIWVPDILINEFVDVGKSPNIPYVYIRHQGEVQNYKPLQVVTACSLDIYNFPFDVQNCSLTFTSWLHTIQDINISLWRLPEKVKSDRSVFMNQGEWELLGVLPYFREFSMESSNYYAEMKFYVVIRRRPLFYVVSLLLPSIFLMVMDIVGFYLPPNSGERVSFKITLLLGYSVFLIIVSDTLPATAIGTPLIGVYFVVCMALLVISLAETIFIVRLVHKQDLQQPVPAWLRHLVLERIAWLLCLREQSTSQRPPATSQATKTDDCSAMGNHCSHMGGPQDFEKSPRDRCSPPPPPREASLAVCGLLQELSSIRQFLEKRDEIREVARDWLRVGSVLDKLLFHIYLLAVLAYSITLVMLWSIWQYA

[2] = in vivo

O=C1c2cccc3c2C(CCC3)CN1C1CN2CCC1CC2 (stereo in doubt) [palonosetron, (3aS)-2-[(3S)-1-azabicyclo[2.2.2]oct-3-yl]-2,3,3a,4,5,6-hexahydro-1H-benz[de]isoquinolin-1-one]
inhibitory effect on delayed vomiting, higher than that of other first-generation 5-HT3 receptor antagonists [1]: 10 times | half-life [2]: ≥ 40 h
